In general, IC50 refers to the concentration needed to halve the response being measured.

From patent US20080234368A9, “Therapeutic compositions and methods of use” (Trustees of Dartmouth College, priority 1998, published 2008) come the findings set out here.

Molecules are shown by their SMILES.

Test [1] has as its system NO production in primary mouse macrophages. The test can be described thus: NO production induced by LPS and IFN-γ in primary mouse macrophages (FIG. 7). Format: cell-based.
Test [2] has as its system AsPc-1 pancreatic carcinoma cells. The test is described as follows: Inhibition of cell proliferation (3H-thymidine incorporation). The test is classed as cell-based, human. The conditions noted are these: AsPc-1 (Smad4/DPC4 mutation); 3 or 4 days, 3H-thymidine 2 h. The procedure: (§1) All cells were obtained from ATCC, except as noted. They were grown under standard conditions in either DMEM, DMEM/F 12, or RPMI 1640 media plus 5-10% FBS. CDDO, over the dose range 10^−6 to 10^−10 M, was added to cultures at the time of seeding. Three or 4 days later, cells were treated with ^3H-thymidine for 2 h (12 h in the case of leukemia cells), and then incorporation was measured. “ER” means estrogen receptor.
(§2) ^aThese cells all have […] mutations (Schutte et al. 1996).

The test system of test [3] is CAPAN-1 pancreatic carcinoma cells. The description is as above. Format: cell-based, human. The conditions noted are these: CAPAN-1 (Smad4/DPC4 mutation); 3 or 4 days, 3H-thymidine 2 h. The procedure: as §1, §2
The subject of test [4] is SW626 ovarian carcinoma cells. The test is described as above. The conditions noted are these: SW626 (Smad4/DPC4 mutation); 3 or 4 days, 3H-thymidine 2 h. Format: cell-based, human. The procedure:
as §1, §2

The subject of test [5] is MDA-MB-468 ER negative breast carcinoma cells. The description is as above. Format: cell-based, human. The conditions noted are these: MDA-MB-468 (Smad4/DPC4 mutation); 3 or 4 days, 3H-thymidine 2 h. On the procedure: as §1, §2
In test [6] the test system is IFN-γ-induced NO production in mouse macrophages. The test can be described thus: Inhibition of IFN-γ induced NO production in mouse macrophages. The test is classed as cell-based. The conditions noted are these: read-out: IC50, inhibition of IFN-γ induced NO production. On the procedure: The inhibitory activities of these compounds and dexamethasone on IFN-γ induced NO production in mouse macrophages is shown below in Table 1. The following procedure for the assay ws used. Macrophages were harvested from female mice injected intraperitoneally four days previously with 4% thioglycollate. These cells were seeded in 96-well tissue culture plates and incubated with 4 ng/mL IFN-γ in the presence or absence of inhibitory test compounds. After 48 hours NO production (measured as nitrite by the Griess reaction) was determined. Full details of the assay are given in Ding et al., 1990; Bogdan et al., 1992.

In test [7] the test system is MCF-7 breast carcinoma cells. The test can be described thus: Suppression of thymidine incorporation, dose-response (FIG. 13). Format: cell-based, human. The settings on record: MCF-7 with 17-β-estradiol, 72 h; oleanolic acid statement at concentrations of 1 μM or less. On the procedure:
(§3) Inhibitors of cell proliferation are known to be useful chemopreventive and chemotherapeutic agents. CDDO was tested against a wide variety of cells derived from highly aggressive leukemias and carcinomas, as well as from non-neoplastic tissues. NRP-152 cells were grown as described in Danielpour et al., 1994. MCF-7 cells were grown in phenol red-free RPMI 1640/10% charcoal-stripped FBS with added 17-β-estradiol (10 μM). Triterpenoids were added at the time of plating, and 72 h later ^3H-thymidine (1 μCi/well) was added for the final 2 h of incubation. Incorporation of thymidine was measured after cells were precipitated with TCA (10%), washed, and solubilized. The symbols used in FIG. 13 are CDDO, ▪; TP-82, ◯; and oleanolic acid; ●.

The test system of test [8] is NRP-152 non-malignant prostate epithelium cells. Described as above. The test is classed as cell-based, rat. The settings on record: NRP-152, 72 h; oleanolic acid statement at concentrations of 1 μM or less. The procedure:
as §3

Test [9] concerns NB4 promyelocytic leukemia line. The test is described as follows: Differentiation of leukemia cells (data not shown). Format: cell-based, human. The settings on record: by itself or in combination with TGF-β1.
The next test deals with COX-2. The test can be described thus: Western blot for COX-2 protein in stimulated primary macrophages. Format: cell-based, mouse. The settings on record: concentrations of 1 μM or less; IFN-γ 10 ng/ml, LPS 2 ng/ml, 12 h. On the procedure: (§4) FIG. 14(A) illustrates Western blots; primary mouse macrophages; IFN-γ, 10 ng/ml; LPS, 2 ng/ml were added to cultures together with triterpenoids or dexamethasone (concentrations shown as […]); cells were harvested at 12 h. FIG. 14(B) illustrates Northern blots, RAW 264.7 macrophage-like cell line. IFN-γ, 10 ng/ml; LPS, 1 ng/ml; TNF-α, 10 ng/ml, were added to cultures together with CDDO or dexamethasone. RNA prepared after 12 h; GAPDH used as a loading control. FIG. 14(C) illustrates suppression of production of NO and PGEF in primary macrophages. For NO studies, cells were treated with IFN-γ, 10 ng/ml, together with CDDO (M), dexamethasone (O), TP-82 (□), or oleanolic acid (A). After 48 h, supernatants were analyzed for NO by the Griess reaction. For PGEF studies, cells were treated with IFN-γ, 5 ng/ml, and LPS, 5 ng/ml, together with the same set of inhibitors. After 48 h, PGE was measured in supernatants by immunoassay. Control values (no inhibition) for NO and PGE2 were 4.7 nmol/[…] and 2.2 ng/ml/2×10^5 cells, respectively. FIGS. (14D) and (14E) illustrate (human colon myofibroblasts) ^18Co cells grown in MEM/10% FBS; other methods are the same as reported above for macrophages. FIG. 14(D) illustrates Northern blots showing dose-response for suppression of COX-2 mRNA after induction with IL-1β (30 pg/ml). CDDO was added together with IL-1. […]
A general note: In western blotting, separated proteins are transferred to a membrane and probed.

The target of a further test is T1, iNOS enzymatic activity (Mus musculus, UniProt P29477).
T1 construct: added to RAW cells in which synthesis of these two enzymes has already been induced; endogenous in cells; host or cells: RAW 264.7 mouse macrophage-like cells, enzyme synthesis pre-induced
T1 sequence (P29477 whole entry): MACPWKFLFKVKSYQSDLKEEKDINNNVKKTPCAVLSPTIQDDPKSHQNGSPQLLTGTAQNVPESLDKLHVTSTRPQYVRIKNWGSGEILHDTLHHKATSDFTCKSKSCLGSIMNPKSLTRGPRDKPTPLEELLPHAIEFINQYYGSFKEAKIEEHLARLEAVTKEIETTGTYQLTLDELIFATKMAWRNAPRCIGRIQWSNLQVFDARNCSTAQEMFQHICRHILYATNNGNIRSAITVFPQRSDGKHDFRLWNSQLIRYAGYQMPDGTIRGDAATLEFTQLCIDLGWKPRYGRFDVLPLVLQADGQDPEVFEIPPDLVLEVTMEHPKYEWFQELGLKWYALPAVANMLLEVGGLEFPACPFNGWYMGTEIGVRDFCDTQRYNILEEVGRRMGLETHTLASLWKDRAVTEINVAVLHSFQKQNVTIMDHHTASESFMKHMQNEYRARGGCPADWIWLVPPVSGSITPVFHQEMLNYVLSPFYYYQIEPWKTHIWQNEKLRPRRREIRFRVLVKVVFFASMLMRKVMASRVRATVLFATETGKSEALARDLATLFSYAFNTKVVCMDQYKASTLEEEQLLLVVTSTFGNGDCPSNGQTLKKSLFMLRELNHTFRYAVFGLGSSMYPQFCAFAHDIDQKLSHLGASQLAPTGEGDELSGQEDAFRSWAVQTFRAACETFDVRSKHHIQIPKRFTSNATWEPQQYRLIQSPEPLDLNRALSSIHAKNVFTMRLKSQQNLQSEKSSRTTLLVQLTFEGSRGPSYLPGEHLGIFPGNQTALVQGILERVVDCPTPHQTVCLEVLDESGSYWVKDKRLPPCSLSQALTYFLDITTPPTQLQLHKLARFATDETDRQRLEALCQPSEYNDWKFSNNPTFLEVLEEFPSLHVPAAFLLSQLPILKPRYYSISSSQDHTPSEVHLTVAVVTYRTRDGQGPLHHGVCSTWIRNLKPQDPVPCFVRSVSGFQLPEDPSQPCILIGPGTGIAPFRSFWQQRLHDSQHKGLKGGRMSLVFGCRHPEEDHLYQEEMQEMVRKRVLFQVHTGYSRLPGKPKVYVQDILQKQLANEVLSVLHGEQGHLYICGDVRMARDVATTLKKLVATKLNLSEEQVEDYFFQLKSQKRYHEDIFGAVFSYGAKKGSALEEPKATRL
The test is described as follows: NO production in RAW cells with enzyme synthesis already induced. Format: cell-based. The conditions noted are these: added after enzyme synthesis induced; data not shown. The text has this:
These effects of CDDO have been seen in primary mouse macrophages, a mouse macrophage-like tumor cell line (RAW 264.7), and in non-neoplastic human colon fibroblasts. […] Neither iNOS nor COX-2 expression can be detected in these cells until they are stimulated by an inflammatory mediator such as IFN-γ, or LPS. […] The above effects on INOS and COX-2 are also reflected in the cumulative production of their respective enzyme products, NO and PGE2, as measured in primary macrophages (FIG. 14C). […] Likewise, the actions of CDDO are not blocked by the glucocorticoid antagonist, RU-486, which is known to bind to the glucocorticoid receptor (data not shown). In these regards, CDDO is identical to the other oleanolic acid derivatives previously studied (Suh et al., 1998).

The test system of the next test is iNOS mRNA. The test is described as follows: Northern blot for iNOS mRNA in RAW 264.7 cells. The test is classed as cell-based, mouse. The conditions noted are these: CDDO 10^−6 M, RAW 264.7, 12 h. The procedure:
as §4

Regarding `CC1(C)CC[C@]2(C(=O)O)CC[C@]3(C)[C@H](C(=O)C=C4[C@@]5(C)C=C(C#N)C(=O)C(C)(C)[C@@H]5CC[C@]43C)[C@@H]2C1` [Compound 6, 2-cyano-3,12-dioxoolean-1,9-dien-28-oic acid], the “activity on LPS and IFN-γ induced NO production compared with dexamethasone (FIG. 7)” value in [1] is reported as “favorable to that of dexamethasone”. The 50% inhibitory concentration (IC50) is 100 nM in test [2]; 300 nM in test [3]; 300 nM in test [4]; 200 nM in test [5]; 1 nM in test [6]. In addition, the suppressing thymidine incorporation entry in test [7] and in test [8] was “highly active in the nanomolar range” in each case. In addition, the differentiative effects result in [9] is listed as “differentiative effects”. Also, the “expression of COX-2 protein” value in the test on COX-2 is “blocked expression”. On iNOS enzymatic activity, the “immediate effect on NO production (direct inhibition of iNOS)” value is reported as “no immediate effect”. In addition, in the test with iNOS mRNA, the “lowering of iNOS mRNA expression” value is on record as “greater than 75%”.
